What was measured:
Type in all cases: cell-based
D2R [1] = molecular target: T1, D2R (Homo sapiens, UniProt P14416); assay: BRET-based β-arrestin recruitment assay at D2R (10 min); conditions: D2R, 10 min; for EC50: read-out: β-arrestin Recruitment pEC50 ± SEM (converted)
T1 construct: expressed in transfected cells; host or cells: HEK293T
Target sequence in this assay (P14416 whole entry): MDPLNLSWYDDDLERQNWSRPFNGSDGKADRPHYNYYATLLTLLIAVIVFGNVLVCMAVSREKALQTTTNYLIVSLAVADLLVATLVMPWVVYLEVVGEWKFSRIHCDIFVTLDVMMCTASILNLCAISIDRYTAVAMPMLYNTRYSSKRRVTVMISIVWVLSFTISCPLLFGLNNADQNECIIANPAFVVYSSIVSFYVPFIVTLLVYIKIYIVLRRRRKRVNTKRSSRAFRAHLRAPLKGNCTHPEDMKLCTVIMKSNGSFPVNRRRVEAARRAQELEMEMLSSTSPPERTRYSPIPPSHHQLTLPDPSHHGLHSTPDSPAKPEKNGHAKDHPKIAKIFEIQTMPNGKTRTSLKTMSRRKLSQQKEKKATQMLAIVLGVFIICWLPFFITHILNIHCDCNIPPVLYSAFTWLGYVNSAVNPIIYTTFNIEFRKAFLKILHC
Target sequence in this assay (P32121 whole entry partner): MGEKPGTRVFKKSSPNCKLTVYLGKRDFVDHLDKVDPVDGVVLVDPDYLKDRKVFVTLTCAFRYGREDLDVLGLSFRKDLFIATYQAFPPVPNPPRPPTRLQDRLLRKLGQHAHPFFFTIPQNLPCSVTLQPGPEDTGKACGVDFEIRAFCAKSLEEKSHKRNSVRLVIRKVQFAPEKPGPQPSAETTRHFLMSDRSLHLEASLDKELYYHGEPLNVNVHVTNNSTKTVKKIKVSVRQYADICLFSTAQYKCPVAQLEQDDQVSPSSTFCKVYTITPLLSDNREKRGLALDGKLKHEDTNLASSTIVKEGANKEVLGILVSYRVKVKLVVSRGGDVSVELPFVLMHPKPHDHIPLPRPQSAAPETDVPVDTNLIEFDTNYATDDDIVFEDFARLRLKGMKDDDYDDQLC

D2R [2] = molecular target: T1, D2R; assay: BRET-based Go protein activation assay at D2R (10 min); conditions: 10 min; for EC50: read-out: Go Protein Activation Assay pEC50 ± SEM (converted); for Bias Factors D2R: Go protein vs β-arrestin, log10(Emax/EC50)G protein − log10(Emax/EC50)β arrestin
Target sequence in this assay (P14416 whole entry): as the sequence (P14416 whole entry) above

D3R [3] = molecular target: T2, D3R (Homo sapiens, UniProt P35462); assay: BRET-based Go protein activation assay at D3R (10 min); conditions: for Selectivity (D2R/D3R) Go Protein Activation: D3R over D2R selectivity; for EC50: read-out: Go Protein Activation Assay pEC50 ± SEM (converted); for Bias Factors D3R: Go protein vs β-arrestin, log10(Emax/EC50)G protein − log10(Emax/EC50)β arrestin
T2 construct: expressed in transfected cells; host or cells: HEK293T
Target sequence in this assay (P35462 whole entry): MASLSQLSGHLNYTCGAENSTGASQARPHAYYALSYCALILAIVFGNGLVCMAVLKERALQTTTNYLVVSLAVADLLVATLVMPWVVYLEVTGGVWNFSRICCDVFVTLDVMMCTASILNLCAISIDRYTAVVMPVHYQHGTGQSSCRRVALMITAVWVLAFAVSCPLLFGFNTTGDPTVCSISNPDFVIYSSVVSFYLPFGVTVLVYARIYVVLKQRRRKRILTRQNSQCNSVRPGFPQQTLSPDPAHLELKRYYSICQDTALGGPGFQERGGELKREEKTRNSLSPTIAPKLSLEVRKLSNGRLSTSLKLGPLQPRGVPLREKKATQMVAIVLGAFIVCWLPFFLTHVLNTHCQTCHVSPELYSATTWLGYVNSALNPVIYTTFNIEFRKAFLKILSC

D3R [4] = molecular target: T2, D3R; assay: BRET-based β-arrestin recruitment assay at D3R (10 min); conditions: D3R; for EC50: read-out: β-arrestin Recruitment pEC50 ± SEM (converted)
Target sequence in this assay (P35462 whole entry): as above
Target sequence in this assay (P32121 whole entry partner): as the sequence (P32121 whole entry partner) above

| Structure (SMILES) | β-arrestin Recruitment Change Emax over Quinpirole (D2R [1]) | β-arrestin Recruitment Emax ± SEM (% of Quinpirole) (D2R [1]) | β-arrestin Recruitment Fold Potency over Quinpirole (D2R [1]) [fold] | EC50 (D2R [1]) [nM] | Go Protein Activation Assay Change Emax over Quinpirole (D2R [2]; D2R) | Go Protein Activation Assay Emax ± SEM (% of Quinpirole) (D2R [2]; D2R) | Go Protein Activation Assay Fold Potency over Quinpirole (D2R [2]; D2R) [fold] | EC50 (D2R [2]; D2R) [nM] | Bias Factors D2R (D2R [2]) | Go Protein Activation Assay Change Emax over Quinpirole (D3R [3]; D3R) | Go Protein Activation Assay Emax ± SEM (% of Quinpirole) (D3R [3]; D3R) | Go Protein Activation Assay Fold Potency over Quinpirole (D3R [3]; D3R) [fold] | Selectivity (D2R/D3R) Go Protein Activation (D3R [3]) [fold] | EC50 (D3R [3]; D3R) [nM] | Bias Factors D3R (D3R [3]) | β-arrestin Recruitment Change Emax over Quinpirole (D3R [4]) | β-arrestin Recruitment Fold Potency over Quinpirole (D3R [4]) [fold] | EC50 (D3R [4]) [nM] | further results |
| --- | --- | --- | --- | --- | --- | --- | --- | --- | --- | --- | --- | --- | --- | --- | --- | --- | --- | --- | --- |
| C[C@H]1CO[C@@H](c2ccc(N)nc2)CN1CCCCOc1ccc2c(c1)NC(=O)CC2 [AB04-96] | 21.6 | 121.6 ± 8.2 % of Quinpirole | 0.16 | 724 | 2.70 | 102.7 ± 4.0 % of Quinpirole | 0.66 | 52.5 | 1.1 | 0.4 | 100.4 ± 2.7 ^δδδδ % of Quinpirole | 0.158 | 2.8 | 18.6 | 1.0 | 4.0 | 0.025 | 174 | Higher efficacy compared to quinpirole in D2R mediated β-arrestin recruitment (D2R [1]): ~ 22% |
| C[C@H]1CO[C@H](c2ccc(N)nc2)CN1CCCCOc1ccc2c(c1)NC(=O)CC2 [AB04-95] | – | – | – | – | – | – | – | – | – | – | – | – | – | – | – | – | – | – | Activity in D2R β-arrestin recruitment (result in words) (D2R [1]): did not show any activity; Activity in D2R Go protein activation (result in words) (D2R [2]; D2R): did not show any activity; D3R mediated Go protein activation (result in words) (D3R [3]; D3R): near complete abolishment; D3R mediated β-arrestin recruitment (result in words) (D3R [4]): near complete abolishment |
| C[C@H]1COC(c2ccc(N)nc2)CN1CCCCOc1ccc2c(c1)NC(=O)CC2 (mixture of isomers) [rac-AB04-35] | 2.80 | 102.8 ± 2.5 % of Quinpirole | 0.06 | 1820 | −24.10 | 75.9 ± 5.3 % of Quinpirole | 0.10 | 331 | 0.6 | −6.1 | 93.9 ± 3.0 ^δδδδ % of Quinpirole | 0.051 | 5.8 | 57.5 | 0.9 | −5.2 | 0.009 | 490 | β-arrestin Recruitment Emax ± SEM (% of Quinpirole) (D3R [4]): 94.8 ± 3.7 ^δδ % of Quinpirole |

From paper PMC8069330, “Chirality of Novel Bitopic Agonists Determines Unique Pharmacology at the Dopamine D3 Receptor” (Biomolecules, 2021)
